The values below come from patent US10300096B2, “Use of adenoviruses and nucleic acids that code for said viruses” (priority 2003, dated 2019).

Common to all, as to format: cell-based
One assay relates to U2OS cells. In words: Oncolytic assay with daunorubicine and dl520, crystal violet. The following applies: 40 ng/ml daunorubicine 3 hours before infection. How it is done: (§1) In the practising of the oncolytic assays the following procedure was followed: 200,000 cells (HeLa and U2OS, respectively) were plated into each well of a 6 well plate. On the next day 40 ng/ml (final concentration) of daunorubicine were added. After 3 hours of incubation the cells were infected with 10 and 30 pfu dl520/cell, respectively. Subsequently, the cells were incubated in cytostatic free medium. After 3-5 days the cells were stained using crystal violet.

A further assay deals with HeLa cells. The description is as above. The following applies: 40 ng/ml daunorubicine 3 hours before infection. How it is done:
as §1

Assay [1] concerns U373 tumour cells. Nature of the assay: Replication of dl520 after addition of Irinotecan, Southern blot. The settings on record: 5 μM Irinotecan 24 hours before infection with 10 pfu/cell dl520, compared to untreated control. How it is done: In order to determine the effect of Irinotecan on adenoviral replication 10^6 U373 tumour cells were plated in 10 cm^2 Petri dishes. In a first reaction 5 μM Irinotecan was added after 24 hours. After another 24 hours the cells were infected with 10 pfu/cell dl520. After incubation of 3 days without Irinotecan DNA was isolated in accordance with the procedure described in example 10.
In a parallel reaction the thus prepared U373-cells were not pre-incubated with Irinotecan. After 48 hours of cultivating the cells without Irinotecan, they were infected with 10 pfu/cell dl520 and subsequently incubated without Irinotecan for another 3 days. DNA was isolated as described above.
Subsequently […] were digested with restriction enzyme Kpn I and a Southern Blot analysis performed. A part of the adenoviral genome (position: 22734-24235) generated by means of PCR was used as a probe.

Assay [2] relates to coxsackievirus-adenovirus-receptor (CAR) on U373 cells. Nature of the assay: CAR expression by Facs-analysis. The following applies: 1 μM Trichostatin for 24 hours; 11.3% without treatment. How it is done: 200,000 U373 cells were plated in 6 well plates. After 24 hours the cells were cultivated with 1 μM Trichostatin for 24 hours. After another 24 hours the cells were isolated. Subsequently, analysis of CAR expression was performed according to a standard protocol using Facs-analysis and the primary antibody anti-CAR clone RmcB from the company Upstate, and a rabbit anti-mouse FITC as secondary antibody (company DAKO).

Assay [3] concerns U373 tumour cells. In words: Replication of dl520 after administration of Trichostatin A, Southern blot. The settings on record: 0.25, 0.5 and 0.75 μM Trichostatin A 24 hours before infection with 10 pfu dl520/cell, compared to untreated controls. How it is done:
In order to test the effect of Trichostatin A on adenoviral replication, 10^6 U373 tumour cells were plated in 10 cm^2 Petri dishes. After 24 hours 0, 0.25, 0.5 and 0.75 μM Trichostatin A was added. After another 24 hours the cells were infected with 10 pfu dl520/cell.
After 3 days of incubation in medium without Trichostatin DNA was isolated. Subsequently 2 μg DNA were digested with restriction enzyme Kpn I and a Southern Blot analysis performed. A part of the adenoviral genome (position: 22734-24235) generated by means of PCR was used as a probe.

For the molecule `COc1cccc2c1C(=O)c1c(O)c3c(c(O)c1C2=O)C[C@@](O)(C(C)=O)C[C@@H]3O[C@H]1C[C@H](N)[C@H](O)[C@H](C)O1` [daunorubicine], the “effect on replication of dl520” value in the assay on U2OS cells and in the assay with HeLa cells was “induces the replication of dl520” each time.
As for `CCc1c2c(nc3ccc(OC(=O)N4CCC(N5CCCCC5)CC4)cc13)-c1cc3c(c(=O)n1C2)COC(=O)[C@]3(O)CC` [Irinotecan], in the assay with U373 tumour cells [1], the “adenoviral replication (dl520, Southern blot)” value is “significantly increased”.
On to `CC(/C=C/C(=O)NO)=C\[C@@H](C)C(=O)c1ccc(N(C)C)cc1` [Trichostatin A], for which the CAR-positive cells in assay [2] stood at 56.2%. Moreover, the “viral replication (dl520, Southern blot)” value in the assay on U373 tumour cells [3] is “significantly increased”.
